Measurements published in US20250134874A1, “PHARMACEUTICAL FORMULATIONS COMPRISING 3-({[(4R)-7-{METHYL[4-(PROPAN-2-YL)PHENYL]AMINO}-3,4-DIHYDRO-2H-1-BENZOPYRAN-4-YL]METHYL}AMINO)PYRIDINE-4-CARBOXYLIC ACID” (TACHYON THERAPEUTICS, INC., priority 2021, published 2025).

System: 301 cancer cell lines from different tumor types (OncoPanel; HD Biosciences)
Test: 2D cell viability inhibition assay (CellTiter-Glo) in cancer cell line panel
Assay type: cell-based
Details: Homo sapiens
Experimental: In a larger screening study, compound 1 was evaluated across a broad cancer cell line panel (OncoPanel; HD Biosciences) composed of 301 cancer cell lines from different tumor types.
2D cell viability inhibition assays were performed in multiwell plates seeded with cells from the panel. After seeding, the plates were cultured overnight in a humidified incubator at 37° C. to promote adherence. Assays were initiated in individual wells by adding either DMSO as a vehicle control, growth media as a blank, or serially diluted compound 1 (10 μM to 0.0005 μM with 1:3 serial dilution). Cultures were incubated for 168 hours after which the number of viable cells in each test well was assessed using the CellTiter-Glo® Luminescent Cell Viability Assay. Luminescence readouts were performed using an EnVision® Multilabel Reader and the compound 1 readouts were normalized to the DMSO control readouts, expressed as a percent of the control. Outliers were flagged out by visual inspection. Percent of control was plotted against the corresponding compound 1 concentration and the absolute IC50 value was determined using four-parameter logistic non-linear regression as the concentration where inhibition was 50% of the control. For maximum inhibition <50%, the absolute IC50 was reported as >10. In addition to EC50 and IC50, AUC was determined and was normalized to the area corresponding to theoretical no-inhibition (the rectangular area defined by the compound dose range and 0 to 100 in y). Emax was recorded as the minimum in y with the compound dose range. For those cell lines where Emax>40, EC50 was manually set to 10 μM. A hierarchical clustering algorithm based on Euclidean distance between the standardized input values and “Ward.D” method as implemented in R hclust function was used to visualize the compound 1 cellular potency data. The sensitive/moderate/resistant calls for each cell line was determined by visually inspecting the resulting clustering dendrogram. All the analyses were done in R Core Team.

CC(C)c1ccc(N(C)c2ccc3c(c2)OCC[C@H]3CNc2cnccc2C(=O)O)cc1 [Compound 1, 3-({[(4R)-7-{methyl[4-(propan-2-yl)phenyl]amino}-3,4-dihydro-2H-1-benzopyran-4-yl]methyl}amino)pyridine-4-carboxylic acid]
EC50 (NCI-H1944, NCIH1944 cell line): ≥ 10 µM
IC50 (NCI-H1944, NCIH1944 cell line): 0.0163 µM
EC50 (NCI-H1975, NCIH1975 cell line): 0.0255 µM
IC50 (NCI-H1975, NCIH1975 cell line): 0.0348 µM
IC50 (NCI-H2009, 168 h, NCIH2009, lung, adenocarcinoma, 168 hours): > 10 µM
EC50 (NCI-H2081, NCIH2081 cell line): 0.00146 µM
IC50 (NCI-H2081, NCIH2081 cell line): 0.00257 µM
EC50 (NCI-H2087, NCIH2087 cell line): 0.00258 µM
IC50 (NCI-H2087, NCIH2087 cell line): 0.00356 µM
EC50 (NCI-H2122, NCIH2122 cell line): 0.0167 µM
IC50 (NCI-H2122, NCIH2122 cell line): 0.0239 µM
EC50 (NCI-H2171, NCIH2171 cell line): ≥ 10 µM
IC50 (NCI-H2171, NCIH2171 cell line): > 10 µM
IC50 (NCI-H2228, NCIH2228 cell line): 0.179 µM
EC50 (NCI-H2286, NCIH2286 cell line): 0.00253 µM
IC50 (NCI-H2286, NCIH2286 cell line): 0.00351 µM
EC50 (NCI-H2291, NCIH2291 cell line): 0.00755 µM
IC50 (NCI-H2291, NCIH2291 cell line): 0.0084 µM
IC50 (NCI-H2347, NCIH2347 cell line): 0.0131 µM
EC50 (NCI-N87, NCIN87 cell line): 0.00394 µM
IC50 (NCI-N87, NCIN87 cell line): 0.00429 µM
EC50 (NOMO-1, NOMO1 cell line): 0.00392 µM
IC50 (NOMO-1, NOMO1 cell line): 0.00501 µM
EC50 (NUGC-3, NUGC3 cell line): 0.00563 µM
IC50 (NUGC-3, NUGC3 cell line): 0.00772 µM
EC50 (NUGC-4, NUGC4 cell line): 0.00662 µM
IC50 (NUGC-4, NUGC4 cell line): 0.0106 µM
IC50 (ONS-76, 168 h, ONS76, central nervous system, NS, 168 hours): > 10 µM
IC50 (OS-RC-2, OSRC2 cell line): > 10 µM
IC50 (OVCAR-3, 168 h, NIHOVCAR3, ovary, NS, 168 hours): > 10 µM
EC50 (P31-FUJ, P31FUJ cell line): 0.00243 µM
IC50 (P31-FUJ, P31FUJ cell line): 0.00432 µM
EC50 (PANC-1, PANC1 cell line): 0.0515 µM
IC50 (PANC-1, PANC1 cell line): 0.0686 µM
EC50 (PC-3, PC3 cell line): 0.0118 µM
IC50 (PC-3, PC3 cell line): 0.0145 µM
EC50 (PF-382, PF382 cell line): 0.00189 µM
IC50 (PF-382, PF382 cell line): 0.00369 µM
EC50 (PLC-PRF-5, PLCPRF5 cell line): 0.0164 µM
IC50 (PLC-PRF-5, PLCPRF5 cell line): 0.028 µM
IC50 (RCM-1, RCM1 cell line): > 10 µM
EC50 (RD, RD cell line): 0.00479 µM
IC50 (RD, RD cell line): 0.00929 µM
EC50 (REH, REH cell line): 0.00132 µM
IC50 (REH, REH cell line): 0.00121 µM
EC50 (RKO, RKO cell line): 0.0085 µM
IC50 (RKO, RKO cell line): 0.0115 µM
EC50 (RL, RL cell line): 0.00188 µM
IC50 (RL, RL cell line): 0.00299 µM
IC50 (RPMI-7951, 168 h, RPMI7951, skin, NS, 168 hours): > 10 µM
EC50 (RPMI-8226, RPMI8226 cell line): 0.0104 µM
IC50 (RPMI-8226, RPMI8226 cell line): 0.0125 µM
EC50 (RT112/84, RT11284 cell line): 0.00414 µM
IC50 (RT112/84, RT11284 cell line): 0.00443 µM
IC50 (SAOS-2, 168 h, SAOS2, bone, NS, 168 hours): > 10 µM
EC50 (SCC-4, SCC4 cell line): 0.00557 µM
IC50 (SCC-4, SCC4 cell line): 0.0105 µM
IC50 (SCC-9, 168 h, SCC9, upper aerodigestive tract, squamous cell carcinoma, 168 hours): > 10 µM
IC50 (SCC-15, 168 h, SCC15, upper aerodigestive tract, squamous cell carcinoma, 168 hours): > 10 µM
IC50 (SCC-25, 168 h, SCC25, upper aerodigestive tract, squamous cell carcinoma, 168 hours): > 10 µM
EC50 (SCaBER, SCABER cell line): 0.00893 µM
IC50 (SCaBER, SCABER cell line): 0.0152 µM
EC50 (SH-SY5Y, SHSY5Y cell line): 0.00432 µM
IC50 (SH-SY5Y, SHSY5Y cell line): 0.0135 µM
EC50 (SK-BR-3, SKBR3 cell line): 0.00432 µM
IC50 (SK-BR-3, SKBR3 cell line): 0.00714 µM
EC50 (SK-CO-1, SKCO1 cell line): ≥ 10 µM
IC50 (SK-CO-1, SKCO1 cell line): 0.0306 µM
IC50 (SK-HEP1, 168 h, SKHEP1, liver, adenocarcinoma, 168 hours): > 10 µM
EC50 (SK-LU-1, SKLU1 cell line): 0.00849 µM
IC50 (SK-LU-1, SKLU1 cell line): 0.04 µM
IC50 (SK-MEL3, SKMEL3 cell line): 0.472 µM
EC50 (SK-MEL-1, SKMEL1 cell line): 0.000536 µM
IC50 (SK-MEL-1, SKMEL1 cell line): 0.00924 µM
EC50 (SK-MEL-2, SKMEL2 cell line): 0.027 µM
IC50 (SK-MEL-2, SKMEL2 cell line): 0.14 µM
EC50 (SK-MEL-5, SKMEL5 cell line): 0.0148 µM
IC50 (SK-MEL-5, SKMEL5 cell line): 0.0168 µM
IC50 (SK-MEL-24, 168 h, SKMEL24, skin, NS, 168 hours): > 10 µM
EC50 (SK-MEL-28, SKMEL28 cell line): 0.00563 µM
IC50 (SK-MEL-28, SKMEL28 cell line): 0.00556 µM
EC50 (SK-MES-1, SKMES1 cell line): 0.0243 µM
IC50 (SK-MES-1, SKMES1 cell line): 0.0475 µM
IC50 (SK-N-SH, 168 h, SKNSH, autonomic ganglia, NS): > 10 µM
IC50 (SK-OV-3, 168 h, SKOV3, ovary, adenocarcinoma, 168 hours): > 10 µM
EC50 (SNB-19, SNB19 cell line): 0.00701 µM
IC50 (SNB-19, SNB19 cell line): 0.0116 µM
EC50 (SNU-5, SNU5 cell line): 0.0824 µM
IC50 (SNU-5, SNU5 cell line): 0.146 µM
EC50 (SNU-16, SNU16 cell line): 0.00369 µM
IC50 (SNU-16, SNU16 cell line): 0.00422 µM
EC50 (SNU-398, SNU398 cell line): 0.00963 µM
IC50 (SNU-398, SNU398 cell line): 0.018 µM
IC50 (SNU-C1, 168 h, SNUC1, large intestine, adenocarcinoma, 168 hours): > 10 µM
IC50 (SUP-T1, SUPT1 cell line): 3.33 µM
EC50 (SW48, SW48 cell line): ≥ 10 µM
IC50 (SW48, SW48 cell line): 0.05 µM
EC50 (SW480, SW480 cell line): 0.00773 µM
IC50 (SW480, SW480 cell line): 0.00979 µM
EC50 (SW780, SW780 cell line): 0.0118 µM
IC50 (SW780, SW780 cell line): 0.013 µM
IC50 (SW837, 168 h, SW837, large intestine, adenocarcinoma, 168 hours): > 10 µM
IC50 (SW1417, 168 h, SW1417, large intestine, adenocarcinoma, 168 hours): > 10 µM
EC50 (SW1463, SW1463 cell line): 0.00918 µM
IC50 (SW1463, SW1463 cell line): 0.00924 µM
EC50 (SW1710, SW1710 cell line): 0.0273 µM
IC50 (SW1710, SW1710 cell line): 0.0633 µM
IC50 (SW1990, SW1990 cell line): > 10 µM
EC50 (SW-620, SW620 cell line): 0.0263 µM
IC50 (SW-620, SW620 cell line): 0.0293 µM
EC50 (T84, T84 cell line): 0.0101 µM
IC50 (T84, T84 cell line): 0.021 µM
EC50 (TALL-1, TALL1 cell line): 0.000895 µM
